Laboratory results taken from PubChem BioAssay AID1053203 (The Scripps Research Institute Molecular Screening Center, 2014).

Assay: growth inhibition of Trypanosoma brucei – absorbance, round 2, provider-run, counter-screen for T. brucei MetRS inhibitor project, late-stage follow-up (AID 1053203)
Settings: T. brucei Lister 427 bloodstream growth, AlamarBlue, 48 h

Structure (SMILES)	IC50 (run 1) [nM]	IC50 (run 2) [nM]
CCN(CC)C(=O)C(=O)c1cn(CC(=O)Nc2cccc(C(F)(F)F)c2)c2cc(OC)ccc12	> 10000	–
CCN(CC)C(=O)C(=O)c1cn(CC(=O)Nc2cc(C(F)(F)F)cc(C(F)(F)F)c2)c2ccccc12	2600	–
CCN(CC)C(=O)C(=O)c1cn(CC(=O)Nc2cc(Br)cc(C(F)(F)F)c2)c2ccccc12	3360	–
CCN(CC)C(=O)C(=O)c1cn(CC(=O)Nc2cc(Cl)cc(C(F)(F)F)c2)c2ccccc12	2640	–
CCN(CC)C(=O)C(=O)c1cn(CC(=O)Nc2cc(C)cc(C(F)(F)F)c2)c2ccccc12	1720	2090
CCN(CC)C(=O)C(=O)c1cn(CC(=O)Nc2cc(Oc3ccccc3)cc(C(F)(F)F)c2)c2ccccc12	1150	1070
